Reference: patent US8367695B2, “Condensed tetrahydroquinoline derivative and use thereof for medical purposes” (Mitsubishi Tanabe Pharma Corporation, priority 2007, dated 2013)

Molecular target: T1, human recombinant mineralocorticoid receptor (MR) (Homo sapiens, UniProt P08235)
T1 construct: made in house; host or cells: insect cell Sf9 (baculovirus)
T1 sequence (P08235 1-984): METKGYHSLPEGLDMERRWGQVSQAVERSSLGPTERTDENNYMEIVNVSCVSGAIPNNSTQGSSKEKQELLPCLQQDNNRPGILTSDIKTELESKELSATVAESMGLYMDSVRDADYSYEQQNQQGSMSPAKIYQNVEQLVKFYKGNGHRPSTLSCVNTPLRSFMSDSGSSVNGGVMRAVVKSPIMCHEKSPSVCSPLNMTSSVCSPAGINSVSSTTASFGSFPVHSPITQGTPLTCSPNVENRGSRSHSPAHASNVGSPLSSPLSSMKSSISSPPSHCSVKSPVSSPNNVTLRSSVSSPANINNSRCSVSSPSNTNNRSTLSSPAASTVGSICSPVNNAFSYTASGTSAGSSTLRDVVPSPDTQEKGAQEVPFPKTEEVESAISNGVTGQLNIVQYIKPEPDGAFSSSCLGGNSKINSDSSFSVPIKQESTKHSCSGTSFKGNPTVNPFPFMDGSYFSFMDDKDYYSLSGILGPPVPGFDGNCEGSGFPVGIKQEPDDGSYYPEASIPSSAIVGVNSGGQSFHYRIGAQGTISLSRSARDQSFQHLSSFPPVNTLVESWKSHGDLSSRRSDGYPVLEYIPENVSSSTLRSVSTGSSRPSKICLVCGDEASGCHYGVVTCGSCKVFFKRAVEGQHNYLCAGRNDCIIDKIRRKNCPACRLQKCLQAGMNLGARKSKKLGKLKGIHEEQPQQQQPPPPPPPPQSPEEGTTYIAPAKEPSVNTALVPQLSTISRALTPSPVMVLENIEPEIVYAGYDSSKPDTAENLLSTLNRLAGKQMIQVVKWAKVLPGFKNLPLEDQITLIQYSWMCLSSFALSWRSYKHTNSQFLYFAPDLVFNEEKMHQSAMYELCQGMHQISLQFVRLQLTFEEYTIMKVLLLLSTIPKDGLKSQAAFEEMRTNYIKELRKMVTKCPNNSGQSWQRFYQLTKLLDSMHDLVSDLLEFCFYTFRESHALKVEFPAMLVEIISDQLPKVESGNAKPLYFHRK
Test: Radioactive ligand binding test, MR cytosol, [3H]-Ald
Settings: not given
Source text: Radioactive Ligand Binding Test Using Cytosols of Human Glucocorticoids Receptor, Progesterone Receptor and Mineralocorticoid Receptor
The procedures described in Neuroimmunomodulation (1994, 1, p. 66-73) and Invest. Opthalmol. Vis. Sci. (1996, 37, p. 805-813) were modified and used. In brief, cytosol preparations of human recombinant glucocorticoids receptor (GR) and human recombinant progesterone receptor-B (PRB) were purchased from Invitrogen (Carlsbad, Calif.), and a cytosol preparation of human recombinant mineralocorticoid receptor (MR) was prepared by our company (Yokohama, JP). MR cDNA was cloned into a baculovirus expression vector and expressed in insect cell Sf9. The procedures described in J. Biol. Chem. (1991, 266, p. 18072-18081), Proc. Natl. Acad. Sci. USA (1991, 88, p. 10681-10685) and Bac-to-Bac (registered trade mark) Baculovirus Expression Systems technical manual (Invitrogen) were partly modified and used as the procedures for MR gene cloning up to preparation of recombinant receptor cytosol. [^3H]-Dexamethasone (Dex, specific activity 91.0 Ci/mmol) was purchased from GE Healthcare (Buckinghamshire, UK), and [^3H]-progesterone (Prog, specific activity 103 Ci/mmol) and [3H]-aldosterone (Ald, specific activity 87.9 Ci/mmol) were each purchased from PerkinElmer (Boston, Mass.). Polypropylene round-bottomed 96 well plate was obtained from ABgene (Epsom, UK). Dimethyl Sulfoxide (DMSO) and hydrochloric acid were obtained from Kanto Chemical (TOKYO, JP). Trizma Base (Tris), Bovine Serum Albumin (BSA) and Sodium tungstate dihydrate were obtained from Sigma Chemicals (St. Louis, Mo.). Dithiothreitol (DTT) and Dextran 70 were obtained from GE Healthcare (Buckinghamshire, UK). Glycerol was obtained from Junsei Chemical (TOKYO, JP). Norit® “SX-II” was obtained from Wako Pure Chemical Industries, Ltd. (Osaka, JP). MeltiLex™, A, Printed Filtermat A and Sample Bag were obtained from PerkinElmer (Boston, Mass.).
As a buffer for GR binding assay, 25 mM Tris-HCl (4° C., pH 7.4)/1 mM EDTA·2Na/1 mM DTT/0.1% BSA was prepared and used. As buffers for PRB and MR binding assay, 10 mM Tris-HCl (4° C., pH 7.4)/1 mM DTT/0.1% BSA/10% glycerol and 20 mM Tris-HCl (4° C., pH 7.4)/1 mM EDTA·2Na/10% glycerol/20 mM sodium tungstate were respectively prepared and used. As dextran-coated charcoal (DCC) for B/F separation, 0.75% Dextran 70/0.75% Norit® SX-II/10 mM Tris-HCl (4° C., pH 7.4) was prepared and used.
Compound storage solutions (5-20 mM) were prepared using DMSO. The storage solutions were diluted with DMSO to 0.1 mM (for GR) and 0.3 mM (for PRB and MR), and further diluted 20-fold with distilled water to give solutions. Then, the preparations were diluted to each concentration with 5% DMSO solution. 1% DMSO was present at the time of the binding assay.
In the case of MR binding assay, [^3H]-Ald (about 4 nM), MR cytosol (about 1 mg/mL concentration of total protein), a test compound and a binding buffer were mixed in a total volume of 50 μL, and the mixture was stood at 4° C. for 30 min or longer. A specific binding was defined to be the difference in the [^3H]-Ald binding between the presence and the absence of 1 μM unlabeled Ald.
After the reaction, 50 μL of DCC was added to each well and blended. Thereafter, the mixture was stood at 4° C. for 10 min. The plate was applied to high-speed cooling centrifuge under the conditions of 4° C., 2000 rpm, 5 min to perform B/F separation. A given amount of the supernatant was recovered, which was spotted on Filtermat A of 96 well format (PerkinElmer) and rapidly dried at a high temperature. Then, solid scintillator MeltiLex A (PerkinElmer) was melted on Filtermat A. The mixture was placed in a Sample Bag (PerkinElmer), and the level of radioactivity was measured by plate reader 1450 Micro Beta TRILUX (PerkinElmer).
Measurement of Inhibition Constant (Ki)

SMILES | Ki [nM]
C=CCC1(C)C(=O)C(C)(C)Nc2c1cc(-c1cccc3cc[nH]c13)c1c2OCO1 (centres unmarked) [Example 78, 6-allyl-4-(1H-indol-7-yl)-6,8,8-trimethyl-6,7,8,9-tetrahydro-[1,3]dioxolo[4,5-h]quinolin-7-one] | > 1000
C=CCC1(C)C(=O)C(C)(C)Nc2c1cc(-c1cccc3nccn13)c1c2CCC1 (centres unmarked) [Example 57, 4-allyl-6-(imidazo[1,2-a]pyridin-5-yl)-2,2,4-trimethyl-2,3,4,7,8,9-hexahydro-1H-cyclopenta[h]quinolin-3-one] | > 1000
CC1(C)Nc2c(cc(-c3ccnc4ncccc34)c3c2CCC3)C(C)(C)C1=O [Example 21, 2,2,4,4-tetramethyl-6-([1,8]naphthyridin-4-yl)-2,3,4,7,8,9-hexahydro-1H-cyclopenta[h]quinolin-3-one] | > 1000
CC#CCC1(C)C(=O)C(C)(C)Nc2c1cc(-c1cccc3nccn13)c1c2CCC1 (centres unmarked) [Example 63, 4-(2-butynyl)-6-(imidazo[1,2-a]pyridin-5-yl)-2,2,4-trimethyl-2,3,4,7,8,9-hexahydro-1H-cyclopenta[h]quinolin-3-one] | > 1000
Cc1noc(C)c1-c1cc2c(c3c1OCO3)NC(C)(C)C(=O)C2(C)C [Example 69, 4-(3,5-dimethylisoxazol-4-yl)-6,6,8,8-tetramethyl-6,7,8,9-tetrahydro-[1,3]dioxolo[4,5-h]quinolin-7-one] | > 1000
CC1(C)Nc2c(cc(-c3cccc4ncccc34)c3c2OCO3)C(C)(C)C1=O [Example 72, 6,6,8,8-tetramethyl-4-(quinolin-5-yl)-6,7,8,9-tetrahydro-[1,3]dioxolo[4,5-h]quinolin-7-one] | > 1000
CC1(C)Nc2c(cc(-c3cccc4nccn34)c3c2OCO3)C(C)(C)C1=O [Example 71, 4-(imidazo[1,2-a]pyridin-5-yl)-6,6,8,8-tetramethyl-6,7,8,9-tetrahydro-[1,3]dioxolo[4,5-h]quinolin-7-one] | > 1000
CC1(C)Nc2c(cc(-c3ccnc4cc[nH]c34)c3c2CCC3)C(C)(C)C1=O [Example 13, 2,2,4,4-tetramethyl-6-(1H-pyrrolo[3,2-b]pyridin-7-yl)-2,3,4,7,8,9-hexahydro-1H-cyclopenta[h]quinolin-3-one] | > 1000
CC1(C)Nc2c(cc(-c3cccc4nncn34)c3c2CCC3)C(C)(C)C1=O [Example 17, 2,2,4,4-tetramethyl-6-([1,2,4]triazolo[4,3-a]pyridin-5-yl)-2,3,4,7,8,9-hexahydro-1H-cyclopenta[h]quinolin-3-one] | > 1000
C=CCC1(C)C(=O)C(C)(C)Nc2c1cc(-c1ccc(O)cc1C)c1c2CCC1 (centres unmarked) [Example 50, 4-allyl-6-(4-hydroxy-2-methylphenyl)-2,2,4-trimethyl-2,3,4,7,8,9-hexahydro-1H-cyclopenta[h]quinolin-3-one] | > 1000
Cc1noc(C)c1-c1cc2c(c3c1CCC3)NC(C)(C)C(=O)C2(C)C [Example 2, 6-(3,5-dimethylisoxazol-4-yl)-2,2,4,4-tetramethyl-2,3,4,7,8,9-hexahydro-1H-cyclopenta[h]quinolin-3-one] | > 1000
CC1(C)Nc2c(cc(-c3cccc4ncccc34)c3c2CCC3)C(C)(C)C1=O [Example 20, 2,2,4,4-tetramethyl-6-(quinolin-5-yl)-2,3,4,7,8,9-hexahydro-1H-cyclopenta[h]quinolin-3-one] | > 1000
CC1(C)Nc2c(cc(-c3cccc4nccn34)c3c2OC(F)(F)O3)C(C)(C)C1=O [Example 82, 2,2-difluoro-4-(imidazo[1,2-a]pyridin-5-yl)-6,6,8,8-tetramethyl-6,7,8,9-tetrahydro-[1,3]dioxolo[4,5-h]quinolin-7-one] | > 1000
CC1(C)Nc2c(cc(-c3cccc4nccn34)c3c2CCC3)C(C)(C)C1=O [Example 14, 6-(imidazo[1,2-a]pyridin-5-yl)-2,2,4,4-tetramethyl-2,3,4,7,8,9-hexahydro-1H-cyclopenta[h]quinolin-3-one] | > 1000
C=C1C(C)(C)Nc2c(cc(-c3c(C)ncn3C)c3c2CCC3)C1(C)C [Example 29, 6-(3,5-dimethyl-3H-imidazol-4-yl)-2,2,4,4-tetramethyl-3-methylene-2,3,4,7,8,9-hexahydro-1H-cyclopenta[h]quinoline] | > 1000
C=CCC1(C)C(=O)C(C)(C)Nc2c1cc(-c1c(C)noc1C)c1c2CCC1 (centres unmarked) [Example 51, 4-allyl-6-(3,5-dimethylisoxazol-4-yl)-2,2,4-trimethyl-2,3,4,7,8,9-hexahydro-1H-cyclopenta[h]quinolin-3-one] | > 1000

Same assay, conditions: [3H]-Ald about 4 nM, MR cytosol (Sf9), 4° C.; Cheng-Prusoff, Kd about 2.0 nM; read-out: MR (Ki: nM)

SMILES | Ki [nM]
CCC1(C)C(=O)C(C)(C)Nc2c1cc(-c1cccc3nccn13)c1c2CCC1 (centres unmarked) [Example 58, 4-ethyl-6-(imidazo[1,2-s]pyridin-5-yl)-2,2,4-trimethyl-2,3,4,7,8,9-hexahydro-1H-cyclopenta[h]quinolin-3-one] | > 1000
